Measured values published in patent publication US6737383B1, “Herbicidal oxadiazolidines” (priority 1999, dated 2004).

Experiments:
blackgrass = assay: Test B pre/postemergence blackgrass; assay type: in vivo, Alopecurus myosuroides
Method in brief: (§1)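 Herbicidal effect was estimated by eye on a ten-point control scale after plants spent twelve to sixteen days in a greenhouse following soil or foliar treatment. Foliar sprays targeted plants at one to four leaves; all doses were formulated in a non-phytotoxic solvent with surfactant.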

morningglory = assay: Test B pre/postemergence morningglory; assay type: in vivo, Ipomoea hederacea
Method in brief: as §1

soybean = assay: Test B pre/postemergence soybean; assay type: in vivo, Glycine max
Method in brief: as §1

corn = assay: Test B pre/postemergence corn; assay type: in vivo, Zea mays
Method in brief: as §1

cocklebur = assay: Test B pre/postemergence cocklebur; assay type: in vivo, Xanthium strumarium
Method in brief: as §1

crabgrass = assay: Test B pre/postemergence crabgrass; assay type: in vivo, Digitaria sanguinalis
Method in brief: as §1

duck salad = assay: Test B flood test duck salad; assay type: in vivo, Heteranthera limosa
Method in brief: (§2)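 Read-out is a visual response score from 0 (no effect) to 10 (complete control), assigned by comparison with untreated controls. Treatment was applied at the 2-leaf stage, and plants stayed in the greenhouse for twelve to sixteen days before scoring.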

giant foxtail = assay: Test B pre/postemergence giant foxtail; assay type: in vivo, Setaria faberii
Method in brief: as §1

purple nutsedge = assay: Test B pre/postemergence purple nutsedge; assay type: in vivo, Cyperus rotundus
Method in brief: as §1

pigweed = assay: Test B pre/postemergence pigweed; assay type: in vivo, Amaranthus retroflexus
Method in brief: as §1

velvetleaf = assay: Test B pre/postemergence velvetleaf; assay type: in vivo, Abutilon theophrasti
Method in brief: as §1

sugar beet = assay: Test B pre/postemergence sugar beet; assay type: in vivo, Beta vulgaris
Method in brief: as §1

surinam grass = assay: Test B pre/postemergence surinam grass; assay type: in vivo, Brachiaria decumbens
Method in brief: as §1

wild oat = assay: Test B pre/postemergence wild oat; assay type: in vivo, Avena fatua
Method in brief: as §1

rice = assay: Test B flood test rice; assay type: in vivo, Oryza sativa
Method in brief: as §2

rape = assay: Test B pre/postemergence rape; assay type: in vivo, Brassica napus
Method in brief: as §1

[1] = Postemergence, Rate 62 g/ha, scale 0 to 10, 0 is no effect, 10 is complete control
[2] = Postemergence, Rate 125 g/ha, scale of 0 to 10 where 0 is no effect and 10 is complete control
[3] = Postemergence, Rate 250 g/ha, scale of 0 to 10, 0 is no effect, 10 is complete control
[4] = Preemergence, Rate 62 g/ha, scale of 0 to 10 where 0 is no effect and 10 is complete control
[5] = Preemergence, Rate 125 g/ha, scale of 0 to 10 where 0 is no effect and 10 is complete control
[6] = Preemergence, Rate 250 g/ha, scale 0 to 10 (0 no effect, 10 complete control)
[7] = Preemergence, Rate 500 g/ha, scale of 0 to 10 where 0 is no effect and 10 is complete control
[8] = Rate 500 g/ha, Postemergence, scale 0 to 10, 0 is no effect, 10 is complete control
[9] = Rate 62 g/ha, flood test species, Pre-emergence, visual evaluation after twelve to sixteen days
[10] = Rate 125 g/ha, under heading Pre-emergence, flood test species, visual evaluation after twelve to sixteen days
[11] = Rate 250 g/ha, Pre-emergence (flood test species), scale 0 to 10, 0 is no effect, 10 is complete control
[12] = Rate 500 g/ha, Pre-emergence section of Table B, 0 to 10 scale (0 no effect, 10 complete control)

SMILES: C#CC=CC(C)(C)n1c(=O)on(C(=O)N(c2ccccc2)C(C)C)c1=O [Compound 655]
- Plant response rating, Blackgrass (blackgrass; [1]): 0
- Blackgrass plant response rating (blackgrass; [2]): 0
- Blackgrass plant response rating (blackgrass; [3]): 0
- Blackgrass plant response rating (blackgrass; [4]): 0
- Blackgrass plant response rating (blackgrass; [5]): 0
- Plant response rating, Blackgrass (blackgrass; [6]): 2
- Plant response rating, Blackgrass (blackgrass; [7]): 3
- Blackgrass plant response rating (blackgrass; [8]): 3
- Plant response rating, Morningglory (morningglory; [1]): 9
- Morningglory plant response rating (morningglory; [3]): 9
- Morningglory plant response rating (morningglory; [4]): 0
- Morningglory plant response rating (morningglory; [5]): 0
- Plant response rating, Morningglory (morningglory; [6]): 0
- Plant response rating, Morningglory (morningglory; [7]): 0
- Plant response rating, Soybean (soybean; [1]): 2
- Soybean plant response rating (soybean; [2]): 2
- Soybean plant response rating (soybean; [4]): 0
- Soybean plant response rating (soybean; [5]): 0
- Plant response rating, Soybean (soybean; [6]): 0
- Plant response rating, Soybean (soybean; [7]): 0
- Soybean plant response rating (soybean; [8]): 4
- Plant response rating, Corn (corn; [1]): 0
- Corn plant response rating (corn; [2]): 0
- Corn plant response rating (corn; [3]): 0
- Corn plant response rating (corn; [4]): 0
- Corn plant response rating (corn; [5]): 0
- Plant response rating, Corn (corn; [6]): 0
- Plant response rating, Corn (corn; [7]): 0
- Corn plant response rating (corn; [8]): 0
- Plant response rating, Cocklebur (cocklebur; [1]): 0
- Cocklebur plant response rating (cocklebur; [2]): 0
- Cocklebur plant response rating (cocklebur; [3]): 0
- Cocklebur plant response rating (cocklebur; [4]): 0
- Cocklebur plant response rating (cocklebur; [5]): 0
- Plant response rating, Cocklebur (cocklebur; [6]): 0
- Plant response rating, Cocklebur (cocklebur; [7]): 0
- Cocklebur plant response rating (cocklebur; [8]): 0
- Plant response rating, Crabgrass (crabgrass; [1]): 1
- Crabgrass plant response rating (crabgrass; [2]): 8
- Crabgrass plant response rating (crabgrass; [3]): 8
- Crabgrass plant response rating (crabgrass; [5]): 8
- Plant response rating, Crabgrass (crabgrass; [6]): 8
- Plant response rating, Crabgrass (crabgrass; [7]): 9
- Crabgrass plant response rating (crabgrass; [8]): 9
- Plant response rating, Ducksalad (0 to 10 scale, 0 is no effect, 10 is complete control) (duck salad; [9]): 0
- Ducksalad plant response rating (0 to 10 scale, 0 is no effect, 10 is complete control) (duck salad; [10]): 0
- Ducksalad plant response rating (duck salad; [11]): 0
- Ducksalad plant response rating (duck salad; [12]): 0
- Plant response rating, Giant foxtail (giant foxtail; [1]): 1
- Giant foxtail plant response rating (giant foxtail; [2]): 7
- Giant foxtail plant response rating (giant foxtail; [4]): 3
- Giant foxtail plant response rating (giant foxtail; [5]): 9
- Plant response rating, Giant foxtail (giant foxtail; [6]): 9
- Plant response rating, Giant foxtail (giant foxtail; [7]): 9
- Giant foxtail plant response rating (giant foxtail; [8]): 9
- Plant response rating, Nutsedge (purple nutsedge; [1]): 0
- Nutsedge plant response rating (purple nutsedge; [2]): 0
- Nutsedge plant response rating (purple nutsedge; [4]): 0
- Nutsedge plant response rating (purple nutsedge; [5]): 0
- Plant response rating, Nutsedge (purple nutsedge; [6]): 0
- Plant response rating, Nutsedge (purple nutsedge; [7]): 0
- Plant response rating, Redroot pigweed (pigweed; [1]): 1
- Redroot pigweed plant response rating (pigweed; [2]): 2
- Redroot pigweed plant response rating (pigweed; [4]): 0
- Redroot pigweed plant response rating (pigweed; [5]): 2
- Plant response rating, Redroot pigweed (pigweed; [6]): 2
- Plant response rating, Redroot pigweed (pigweed; [7]): 4
- Redroot pigweed plant response rating (pigweed; [8]): 7
- Plant response rating, Velvetleaf (velvetleaf; [1]): 0
- Velvetleaf plant response rating (velvetleaf; [2]): 0
- Velvetleaf plant response rating (velvetleaf; [4]): 0
- Velvetleaf plant response rating (velvetleaf; [5]): 0
- Plant response rating, Velvetleaf (velvetleaf; [6]): 0
- Plant response rating, Velvetleaf (velvetleaf; [7]): 0
- Velvetleaf plant response rating (velvetleaf; [8]): 0
- Plant response rating, Sugarbeets (sugar beet; [1]): 0
- Sugarbeets plant response rating (sugar beet; [2]): 0
- Sugarbeets plant response rating (sugar beet; [4]): 0
- Sugarbeets plant response rating (sugar beet; [5]): 0
- Plant response rating, Sugarbeets (sugar beet; [6]): 0
- Plant response rating, Sugarbeets (sugar beet; [7]): 0
- Sugarbeets plant response rating (sugar beet; [8]): 2
- Plant response rating, B. signalgrass (surinam grass; [1]): 0
- Plant response rating, B. signalgrass (surinam grass; [2]): 0
- B. signalgrass plant response rating (surinam grass; [3]): 2
- B. signalgrass plant response rating (surinam grass; [4]): 0
- B. signalgrass plant response rating (surinam grass; [5]): 0
- Plant response rating, B. signalgrass (surinam grass; [6]): 0
- Plant response rating, B. signalgrass (surinam grass; [7]): 0
- B. signalgrass plant response rating (surinam grass; [8]): 2
- Plant response rating, Wild oats (wild oat; [1]): 0
- Wild oats plant response rating (wild oat; [2]): 0
- Wild oats plant response rating (wild oat; [4]): 0
- Wild oats plant response rating (wild oat; [5]): 0
- Plant response rating, Wild oats (wild oat; [6]): 0
- Plant response rating, Wild oats (wild oat; [7]): 0
- Wild oats plant response rating (wild oat; [8]): 1
- Plant response rating, Rice (0 to 10 scale, 0 is no effect, 10 is complete control) (rice; [9]): 0
- Rice plant response rating (0 to 10 scale, 0 is no effect, 10 is complete control) (rice; [10]): 0
- Rice plant response rating (rice; [11]): 0
- Rice plant response rating (rice; [12]): 0
- Plant response rating, Rape (rape; [1]): 0
- Rape plant response rating (rape; [2]): 2
- Rape plant response rating (rape; [4]): 0
- Rape plant response rating (rape; [5]): 0
- Plant response rating, Rape (rape; [6]): 0
- Plant response rating, Rape (rape; [7]): 0
- Rape plant response rating (rape; [8]): 3
